{
  "source": "paper PMC7252906",
  "about": "(Toxicology and applied pharmacology, 2019)",
  "key": {"[1]": {"test": "Incorporation of [^14C]DMAE-derived radioactivity in tissue lipids", "assay_type": "in vivo, Wistar Han rats", "details": "gavage 100 mg/kg, 2 h; for Radioactivity in tissue lipids (% dose administered) / Total radioactivity in tissue lipids: male rats"}, "[2]": {"details": "for % Dose Recovered, Feces / % Dose Recovered, Tissues and GI Tract (includes contents) / % Dose Recovered, Total Recovered / % Dose Recovered, VOCs / % Dose Recovered, CO2 / % Dose Recovered, Urine / percent radioactivity remaining in all tissues, excluding GI tract: 24 h"}, "[3]": {"details": "female Wistar Han rats, gavage 500 mg/kg"}, "[4]": {"details": "male Wistar Han rats, IV 10 mg/kg"}, "[5]": {"details": "male Wistar Han rats, IV 10 mg/kg, listed as [^14C]DMAE, 10 mg/kg"}, "[6]": {"details": "male Wistar Han rats, gavage 10 mg/kg"}, "[7]": {"details": "male Wistar Han rats, gavage 10 mg/kg, listed as [^14C]DMAE, 10 mg/kg"}, "[8]": {"details": "male Wistar Han rats, gavage 100 mg/kg"}},
  "note": "Several values for one entry are separate records, joined by “and”; a condition that tells them apart may be missing. Equal entries are not always repeated. Where two headings read alike, the source gives them in different places.",
  "data": [
    {"smiles": "CN(C)CCO", "note": "[DMAE, Dimethylaminoethanol]", "values": [
      {"measurement": "highest level of radioactivity incorporated into lipids in any tissues", "setting": "[1]; male Wistar Han rats", "result": "~ 1 % of the administered dose"},
      {"measurement": "Radioactivity in tissue lipids (% dose administered)", "setting": "[1]; Brain, Fatty Acids", "result": 0.020, "unit": "% dose"},
      {"measurement": "Total radioactivity in tissue lipids", "setting": "[1]; Brain, Fatty Acids", "result": 34},
      {"measurement": "Radioactivity in tissue lipids (% dose administered)", "setting": "[1]; Brain, Neutral Lipids", "result": 0.075, "unit": "% dose"},
      {"measurement": "Total radioactivity in tissue lipids", "setting": "[1]; Brain, Neutral Lipids", "result": 107},
      {"measurement": "Radioactivity in tissue lipids (% dose administered)", "setting": "[1]; Brain, Phospholipids", "result": 0.097, "unit": "% dose"},
      {"measurement": "Total radioactivity in tissue lipids", "setting": "[1]; Brain, Phospholipids", "result": 167},
      {"measurement": "Radioactivity in tissue lipids (% dose administered)", "setting": "[1]; Heart, Fatty Acids", "result": 0.010, "unit": "% dose"},
      {"measurement": "Total radioactivity in tissue lipids", "setting": "[1]; Heart, Fatty Acids", "result": 17},
      {"measurement": "Radioactivity in tissue lipids (% dose administered)", "setting": "[1]; Heart, Neutral Lipids", "result": 0.028, "unit": "% dose"},
      {"measurement": "Total radioactivity in tissue lipids", "setting": "[1]; Heart, Neutral Lipids", "result": 40},
      {"measurement": "Radioactivity in tissue lipids (% dose administered)", "setting": "[1]; Heart, Phospholipids", "result": 0.188, "unit": "% dose"},
      {"measurement": "Total radioactivity in tissue lipids", "setting": "[1]; Heart, Phospholipids", "result": 323},
      {"measurement": "Radioactivity in tissue lipids (% dose administered)", "setting": "[1]; Kidney, Fatty Acids", "result": 0.047, "unit": "% dose"},
      {"measurement": "Total radioactivity in tissue lipids", "setting": "[1]; Kidney, Fatty Acids", "result": 81},
      {"measurement": "Radioactivity in tissue lipids (% dose administered)", "setting": "[1]; Kidney, Neutral Lipids", "result": 0.029, "unit": "% dose"},
      {"measurement": "Total radioactivity in tissue lipids", "setting": "[1]; Kidney, Neutral Lipids", "result": 41},
      {"measurement": "Radioactivity in tissue lipids (% dose administered)", "setting": "[1]; Kidney, Phospholipids", "result": 0.771, "unit": "% dose"},
      {"measurement": "Total radioactivity in tissue lipids", "setting": "[1]; Kidney, Phospholipids", "result": 1322},
      {"measurement": "Radioactivity in tissue lipids (% dose administered)", "setting": "[1]; Liver, Phospholipids", "result": 1.117, "unit": "% dose"},
      {"measurement": "Total radioactivity in tissue lipids", "setting": "[1]; Liver, Phospholipids", "result": 1915},
      {"measurement": "Radioactivity in tissue lipids (% dose administered)", "setting": "[1]; Lung, Fatty Acids", "result": 0.074, "unit": "% dose"},
      {"measurement": "Total radioactivity in tissue lipids", "setting": "[1]; Lung, Fatty Acids", "result": 127},
      {"measurement": "Radioactivity in tissue lipids (% dose administered)", "setting": "[1]; Lung, Neutral Lipids", "result": 0.276, "unit": "% dose"},
      {"measurement": "Total radioactivity in tissue lipids", "setting": "[1]; Lung, Neutral Lipids", "result": 395},
      {"measurement": "Radioactivity in tissue lipids (% dose administered)", "setting": "[1]; Lung, Phospholipids", "result": 0.926, "unit": "% dose"},
      {"measurement": "Total radioactivity in tissue lipids", "setting": "[1]; Lung, Phospholipids", "result": 1587},
      {"measurement": "Radioactivity in tissue lipids (% dose administered)", "setting": "[1]; Skin, Fatty Acids", "result": 0.007, "unit": "% dose"},
      {"measurement": "Total radioactivity in tissue lipids", "setting": "[1]; Skin, Fatty Acids", "result": 12},
      {"measurement": "Radioactivity in tissue lipids (% dose administered)", "setting": "[1]; Skin, Neutral Lipids", "result": 0.003, "unit": "% dose"},
      {"measurement": "Total radioactivity in tissue lipids", "setting": "[1]; Skin, Neutral Lipids", "result": 4},
      {"measurement": "Radioactivity in tissue lipids (% dose administered)", "setting": "[1]; Skin, Phospholipids", "result": 0.251, "unit": "% dose"},
      {"measurement": "Total radioactivity in tissue lipids", "setting": "[1]; Skin, Phospholipids", "result": 430},
      {"measurement": "Radioactivity in tissue lipids (% dose administered)", "setting": "[1]; Spleen, Fatty Acids", "result": 0.004, "unit": "% dose"},
      {"measurement": "Total radioactivity in tissue lipids", "setting": "[1]; Spleen, Fatty Acids", "result": 7},
      {"measurement": "Radioactivity in tissue lipids (% dose administered)", "setting": "[1]; Spleen, Neutral Lipids", "result": 0.004, "unit": "% dose"},
      {"measurement": "Total radioactivity in tissue lipids", "setting": "[1]; Spleen, Neutral Lipids", "result": 7},
      {"measurement": "Radioactivity in tissue lipids (% dose administered)", "setting": "[1]; Spleen, Phospholipids", "result": 0.055, "unit": "% dose"},
      {"measurement": "Total radioactivity in tissue lipids", "setting": "[1]; Spleen, Phospholipids", "result": 95},
      {"measurement": "Radioactivity in tissue lipids (% dose administered)", "setting": "[1]; Testes, Fatty Acids", "result": 0.013, "unit": "% dose"},
      {"measurement": "Total radioactivity in tissue lipids", "setting": "[1]; Testes, Fatty Acids", "result": 23},
      {"measurement": "Radioactivity in tissue lipids (% dose administered)", "setting": "[1]; Testes, Neutral Lipids", "result": 0.008, "unit": "% dose"},
      {"measurement": "Total radioactivity in tissue lipids", "setting": "[1]; Testes, Neutral Lipids", "result": 11},
      {"measurement": "Radioactivity in tissue lipids (% dose administered)", "setting": "[1]; Testes, Phospholipids", "result": 0.097, "unit": "% dose"},
      {"measurement": "Total radioactivity in tissue lipids", "setting": "[1]; Testes, Phospholipids", "result": 167},
      {"measurement": "administered dose recovered in tissues (excluding GI tract)", "setting": "[2]; Wistar Han rats, oral, 24 h post-exposure, range over groups", "result": "21–29%"},
      {"measurement": "% Dose Recovered, Feces", "setting": "[2]; [3]", "result": "0.549 ± 0.147", "unit": "% dose"},
      {"measurement": "% Dose Recovered, Tissues and GI Tract (includes contents)", "setting": "[2]; [3]", "result": "27.4 ± 1.40", "unit": "% dose"},
      {"measurement": "% Dose Recovered, Total Recovered", "setting": "[2]; [3]", "result": "98.4 ± 0.800", "unit": "% dose"},
      {"measurement": "% Dose Recovered, VOCs", "setting": "[2]; [3]", "result": "0.818 ± 0.456", "unit": "% dose"},
      {"measurement": "% Dose Recovered, CO2", "setting": "[2]; female Wistar Han rats, gavage 500 mg/kg, listed as [^14C]DMAE, 500 mg/kg", "result": "6.09 ± 0.810", "unit": "% dose"},
      {"measurement": "% Dose Recovered, CO2", "setting": "[2]; [4]", "result": "3.52 ± 0.780", "unit": "% dose"},
      {"measurement": "% Dose Recovered, Feces", "setting": "[2]; [4]", "result": "0.330 ± 0.092", "unit": "% dose"},
      {"measurement": "% Dose Recovered, Tissues and GI Tract (includes contents)", "setting": "[2]; [4]", "result": "38.5 ± 2.30", "unit": "% dose"},
      {"measurement": "% Dose Recovered, VOCs", "setting": "[2]; [4]", "result": "0.230 ± 0.029", "unit": "% dose"},
      {"measurement": "% Dose Recovered, Urine", "setting": "[2]; male Wistar Han rats, IV 10 mg/kg, 10 mg/kg", "result": 39, "unit": "% dose"},
      {"measurement": "% Dose Recovered, Total Recovered", "setting": "[2]; [5]", "result": "82 % dose and 81.8 ± 7.10 % dose"},
      {"measurement": "% Dose Recovered, Urine", "setting": "[2]; [5]", "result": "39.2 ± 7.80", "unit": "% dose"},
      {"measurement": "% Dose Recovered, CO2", "setting": "[2]; [6]", "result": "3.67 ± 0.440", "unit": "% dose"},
      {"measurement": "% Dose Recovered, Feces", "setting": "[2]; [6]", "result": "0.206 ± 0.242", "unit": "% dose"},
      {"measurement": "% Dose Recovered, Tissues and GI Tract (includes contents)", "setting": "[2]; [6]", "result": "33.9 ± 2.20", "unit": "% dose"},
      {"measurement": "% Dose Recovered, VOCs", "setting": "[2]; [6]", "result": "0.153 ± 0.037", "unit": "% dose"},
      {"measurement": "percent radioactivity remaining in all tissues, excluding GI tract", "setting": "[2]; [6]", "result": "~28", "unit": "%"},
      {"measurement": "% Dose Recovered, Total Recovered", "setting": "[2]; [7]", "result": "95 % dose and 94.9 ± 3.20 % dose"},
      {"measurement": "% Dose Recovered, Urine", "setting": "[2]; [7]", "result": "57.0 ± 4.10", "unit": "% dose"},
      {"measurement": "% Dose Recovered, CO2", "setting": "[2]; [8]", "result": "4.84 ± 0.700", "unit": "% dose"},
      {"measurement": "% Dose Recovered, Feces", "setting": "[2]; [8]", "result": "0.302 ± 0.061", "unit": "% dose"},
      {"measurement": "% Dose Recovered, Tissues and GI Tract (includes contents)", "setting": "[2]; [8]", "result": "30.1 ± 3.80", "unit": "% dose"},
      {"measurement": "% Dose Recovered, Total Recovered", "setting": "[2]; [8]", "result": "93.9 ± 2.90", "unit": "% dose"},
      {"measurement": "percent radioactivity remaining in all tissues, excluding GI tract", "setting": "[2]; [8]", "result": "~25", "unit": "%"},
      {"measurement": "% Dose Recovered, Urine", "setting": "[2]; male Wistar Han rats, gavage 100 mg/kg, listed as [^14C]DMAE, 100 mg/kg", "result": "59 % dose and 58.6 ± 5.10 % dose"},
      {"measurement": "% Dose Recovered, CO2", "setting": "[2]; male Wistar Han rats, gavage 500 mg/kg", "result": "4.78 ± 0.810", "unit": "% dose"}
    ]}
  ]
}
